Measurements taken from article PMC6915869, “Immunosuppressive effects of a novel potassium channel toxin Ktx-Sp2 from Scorpiops Pocoki” (Cell & Bioscience, 2019).
“Also recorded” adds a separate entry of the source. Bridge positions count the residues as written; N and C are the ends. Peptide text beside a SMILES is read from it.

Tests used:
mKv1.2 = molecular target: T1, mKv1.2 (Mus musculus, UniProt P63141); experiment: Whole-cell patch-clamp, exogenous Kv1.2 in HEK293T cells; type: cell-based
T1 construct: expressed in transfected cells; host or cells: HEK293T, vector pIRES2-EGFP (bicistronic, EGFP not fused)
Description: (§1) Mouse spinal columns were removed and placed in ice cold HBSS, then laminectomies were performed and bilateral DRG were dissected out. After removal of connective tissues, DRG were transferred to a 1 ml Ca^2+/Mg^2+-free HBSS containing 2 μl saturated NaHCO3, 0.35 mg L-cysteine and 20 U papain (Worthington, Lakewood, NJ, USA), and incubated at 37 °C for 10 min. The suspension of DRG was centrifuged, the supernatant was removed, 1 ml Ca^2+/Mg^2+-free HBSS containing 4 mg collagenase type II and 1.25 mg dispase type II (Worthington) was added and incubated at 37 °C for 10 min. After digestion, neurons were pelleted, suspended in neurobasal medium containing 2% B-27 supplement, 1% L-glutamine, 100 U/ml penicillin plus 100 μg/ml streptomycin, and 50 ng/ml nerve growth factor, plated on a 12 mm coverslip coated with poly-L-lysine (10 μg/ml) and cultured under a humidified atmosphere of 5% CO2/95% air at 37 °C for 18–24 h before use. Jurkat E6-1 T cells (ATCC TIB152) and HEK293T cells (ATCC ACS4500) were maintained in RPMI medium 1640 (Invitrogen, Carlsbad, CA, USA) and Dulbecco’s modified Eagle’s medium (DMEM) (Life Technologies,GrandIsland, NY, USA), supplemented with 10% fetal bovine serum (Life Technologies), 100 units/ml penicillin, 100 μg/ml streptomycin, respectively. Cells were cultured in a humidified incubator at 37 °C with 5% CO2. The cDNAs encoding mKv1.1, mKv1.2, mKv1.3, mNav1.4, mNav1.5 and mNav1.7 were subcloned into the XhoI/BamHI sites of a bicistronic vector, pIRES2-EGFP (Clontech, USA), then transiently transfected into HEK293-T cells using Lipofectamine 2000 (Invitrogen) for electrophysiological experiments.
Whole-cell patch-clamp recordings were performed using an EPC 9 amplifier (HEKA Elektronik, Lambrecht/Pfalz, Germany) at room temperature (22–24 °C). Pipettes pulled from borosilicate glass (BF 150-86-10; Sutter Instrument Company, Novato, CA, USA) had resistances of 2–4 MΩ when filled with the internal solution. The internal pipette solution for recording Kv currents contained: KCl 140 mM, MgCl2 1 mM, EGTA 1 mM, Na2ATP 3 mM, HEPES 10 mM (pH 7.3 with KOH); for recording Na currents contained: CsCl 100 mM, CsF 40 mM, MgCl2 2 mM, HEPES 10 mM, EGTA 10 mM, D-Glucose 10 mM, Na2ATP 3 mM (pH 7.3 with CsOH). The external solution for recording Kv currents contained: KCl 5 mM, NaCl 140 mM, HEPES 10 mM, CaCl2 2 mM, MgCl2 1 mM, D-Glucose 10 mM (pH 7.4 with NaOH); for recording Na currents contained: NaCl 132 mM, KCl 5.4 mM, CaCl2 1.8 mM, MgCl2 0.8 mM, HEPES 10 mM, D-Glucose 5 mM (pH 7.4 with NaOH). Kv currents were elicited by + 50 mV, 400 ms depolarizing pulse from the holding potential of − 60 mV every 20 s, and Na currents were elicited by + 10 mV, 100 ms depolarizing pulse from the holding potential of − 60 mV every 10 s. […]

[1] = test system: endogenous sodium channels expressed by DRG neurons; experiment: Whole-cell patch-clamp, endogenous sodium channels of DRG neurons; type: cell-based, mouse; settings: 1 μM; +10 mV 100 ms pulse from -60 mV every 10 s
Description: as §1, with “The cDNAs encoding mKv1.1, mKv1.2, mKv1.3, mNav1.4, mNav1.5 and mNav1.7 were subcloned into the XhoI/BamHI sites of a bicistronic vector, pIRES2-EGFP (Clontech, USA), then transiently transfected into HEK293-T cells using Lipofectamine 2000 (Invitrogen) for electrophysiological experiments.” left out

[2] = test system: Ca^2+ influx in Jurkat T cells; experiment: Live cell Ca^2+ imaging (Fura-2) in Jurkat T cells; type: cell-based, human; settings: for inhibition of Ca^2+ influx / free calcium concentration (in words): 10 μM Ktx-Sp2, 3 min pre-treatment, 10 μM CPA, then 2 mM Ca^2+
Description: Jurkat T cells were loaded with 4 μM Fura-2 AM (Life Technologies) for 60 min at 37 °C. Cells were then washed 3 times and incubated in Hank’s Balanced Salt Solution (HBSS) for 30 min at room temperature before use. Fluorescence at 340 nm and 380 nm excitation wavelengths was recorded on an inverted Nikon Ti-E microscope equipped with 340, 360 and 380 nm excitation filter wheels using NIS-Elements imaging software (Nikon Instruments Inc., Melville, NY, USA). Fura-2 ratios (F340/F380) reflect changes in [Ca^2+]i upon stimulation. Data were obtained from 100 to 250 cells in time-lapse images from each coverslip.
To test this hypothesis we performed live cell Ca^2+ imaging using the Ca^2+ indicator dye Fura-2 to determine the effect of Ktx-Sp2 on [Ca^2+]i in the presence of intracellular Ca^2+ store depletion by cyclopiazonic acid (CPA), an inhibitor of the sarcoplasmic reticulum Ca^2+-ATPase. […] When 2 mM Ca^2+ was added to the Ca^2+-free HBSS, we observed a large Ca^2+ influx into the cells. […] At 10 μM, Ktx-Sp2 decreased the F340/F380 ratio from 0.14 ± 0.02 to 0.05 ± 0.01 (n = 278) (Fig. 5b).

[3] = test system: IL-2 secretion from Jurkat T cells; experiment: IL-2 secretion from ConA-activated Jurkat T cells (ELISA); type: cell-based, human; settings: ConA 10 μg/ml; for ConA-induced IL-2 secretion (in words): Ktx-Sp2 10 nM, 100 nM, 1 μM and 10 μM, 24 h, ELISA at 450 nm, n = 6, ***P < 0.0001
Description: IL-2 secretion from Jurkat T cells was measured using an ELISA kit (eBioscience, San Diego, CA, USA) following manufacturer’s instructions. Cells were centrifuged at 1500 rpm for 10 min, and the supernatants were collected to measure IL-2 concentrations. Reactions were performed in 96-well plates coated with the capture antibody and stopped with phosphoric acid (1 M). Absorbance was measured at 450 nm. Each experiment was repeated at least three times in duplicate.
The cytokine IL-2 is predominantly secreted from activated T cells and is critical in regulating the balance between immune tolerance and autoimmunity. The secretion of IL-2 is driven by a rise of [Ca^2+]i. Since Ktx-Sp2 potently suppresses Kv1.3 function and decreases Ca^2+ influx in Jurkat T cells we next asked whether Ktx-Sp2 could inhibit IL-2 secretion, which should result in functional immunosuppression. As a classical polyclonal stimulator acting through T-cell receptor complex (TCR)-CD3 complex, ConA has been used to induce T cell activation and stimulate IL-2 secretion, which is dependent on an increase of [Ca^2+]i. We thus used the ConA-stimulated IL-2 secretion in the growth media as readout.
Fig. 6 Ktx-Sp2 inhibits IL-2 secretion from activated Jurkat T cells. The concentrations of IL-2 in cell growth media were measured by ELISA. Jurkat T cells were activated by ConA (10 μg/ml) for 24 h. Ktx-Sp2 (10 nM, 100 nM, 1 μM and 10 μM) were added simultaneously with ConA. ***P < 0.0001, n = 6

T1 sequence (P63141 whole entry, the tested form may be a part): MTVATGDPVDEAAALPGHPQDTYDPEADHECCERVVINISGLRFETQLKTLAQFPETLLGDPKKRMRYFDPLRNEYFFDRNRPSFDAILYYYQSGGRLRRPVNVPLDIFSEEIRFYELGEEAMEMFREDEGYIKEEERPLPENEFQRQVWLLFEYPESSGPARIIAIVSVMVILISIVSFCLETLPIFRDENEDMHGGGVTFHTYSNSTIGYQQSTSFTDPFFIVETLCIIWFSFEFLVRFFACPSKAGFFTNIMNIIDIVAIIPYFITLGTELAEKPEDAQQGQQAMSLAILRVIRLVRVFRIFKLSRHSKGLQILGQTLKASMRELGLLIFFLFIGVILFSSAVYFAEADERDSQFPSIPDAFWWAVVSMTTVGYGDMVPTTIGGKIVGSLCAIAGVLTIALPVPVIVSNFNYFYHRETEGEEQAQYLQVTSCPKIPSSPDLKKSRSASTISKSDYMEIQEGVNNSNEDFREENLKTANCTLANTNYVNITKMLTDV

CSCC[C@@H]1NC(=O)[C@@H]2CSSC[C@H](NC(=O)[C@H](CCCCN)NC(=O)[C@H](C)NC(=O)CNC(=O)[C@H](Cc3c[nH]cn3)NC(=O)[C@H](CC(C)C)NC(=O)[C@@H]3CCCN3C(=O)[C@@H](N)CO)C(=O)N[C@@H](CO)C(=O)N[C@@H](CO)C(=O)N[C@@H](CO)C(=O)N[C@@H](CC(N)=O)C(=O)N[C@@H](CCC(N)=O)C(=O)N[C@H]3CSSC[C@H](NC(=O)[C@H](CCCNC(=N)N)NC(=O)CNC(=O)[C@H](CC(N)=O)NC1=O)C(=O)N[C@@H](CCCNC(=N)N)C(=O)N[C@H](C(=O)N[C@@H](Cc1ccc(O)cc1)C(=O)NCC(=O)O)CSSC[C@H](NC(=O)[C@@H]1CCCN1C(=O)[C@H](CCCNC(=N)N)NC(=O)[C@H]([C@@H](C)O)NC3=O)C(=O)N[C@@H](CCCNC(=N)N)C(=O)N[C@@H](Cc1ccc(O)cc1)C(=O)NCC(=O)NCC(=O)NCC(=O)N[C@@H]([C@@H](C)O)C(=O)N[C@@H](Cc1c[nH]cn1)C(=O)NCC(=O)N[C@@H](CCCCN)C(=O)N2 [Ktx-Sp2] (H-SPLHGAKCSSSNQCTRPCRYGGGTHGKCMNGRCRCYG-OH; disulfide 8-28, 14-33, 18-35 (inferred); N-terminus and C-terminus assumed)
IC50 (mKv1.2; +50 mV 400 ms pulse from -60 mV every 20 s, room temperature (22–24 °C), mean ± SEM): 56.9 ± 2.32 nM | blocking activity on Kv1.3 relative to Kv1.2 (Discussion) (mKv1.2; Discussion section): 4 times | blocking activity on Kv1.2 channel (rounded, Discussion) (mKv1.2; electrophysiology): about 57 nM | blocking of Kv1.2 (in words) (mKv1.2; exogenous channel): effectively block; also recorded: high blocking activity | effect on endogenous sodium channels of DRG neurons [1]: almost had no effect | inhibition of Ca^2+ influx / free calcium concentration (in words) [2]: significantly reduce the free calcium concentration in Jurkat T cells; also recorded: obvious inhibition of Ca^2+ influx | inhibition of Ca^2+ influx / free calcium concentration (in words) ([2]; listed as Ktx-sp2): effectively reduce the concentration of free Ca^2+ in Jurkat T cells | F340/F380 ratio (net change induced by 2 mM extracellular Ca^2+) ([2]; 10 μM Ktx-Sp2, pre-treatment 3 min, store depletion by 10 μM CPA, decreased from 0.14 ± 0.02 without peptide, n = 278, ****P ≤ 0.0001): 0.05 ± 0.01 | activation of Jurkat T cells (in words) [3]: inhibit the activation of Jurkat T cells | activation of Jurkat T cells (in words) ([3]; listed as Ktx-sp2): inhibiting the activation effect of ConA on Jurkat T cells | ConA-induced IL-2 secretion (in words) [3]: reduce the release of inflammatory cytokines IL-2; also recorded: significantly reduced ConA-induced IL-2 secretion in a concentration-dependent manner | ConA-induced IL-2 secretion (in words) ([3]; listed as Ktx-sp2): significantly reducing the release of inflammatory cytokine IL-2
